Here are results for four compounds from patent US6706750B1, “Indole derivatives process for their preparation, pharmaceutical compositions containing them and their medicinal application” (priority 1999, dated 2004).

Structures are written as SMILES. Like-named read-outs stand apart in the source and are kept apart here.

One series addresses T1, 5-HT2C receptor (Homo sapiens, UniProt P28335).
T1 construct: expressed in transfected cells; host or cells: CHO cell line
T1 sequence (P28335 33-458): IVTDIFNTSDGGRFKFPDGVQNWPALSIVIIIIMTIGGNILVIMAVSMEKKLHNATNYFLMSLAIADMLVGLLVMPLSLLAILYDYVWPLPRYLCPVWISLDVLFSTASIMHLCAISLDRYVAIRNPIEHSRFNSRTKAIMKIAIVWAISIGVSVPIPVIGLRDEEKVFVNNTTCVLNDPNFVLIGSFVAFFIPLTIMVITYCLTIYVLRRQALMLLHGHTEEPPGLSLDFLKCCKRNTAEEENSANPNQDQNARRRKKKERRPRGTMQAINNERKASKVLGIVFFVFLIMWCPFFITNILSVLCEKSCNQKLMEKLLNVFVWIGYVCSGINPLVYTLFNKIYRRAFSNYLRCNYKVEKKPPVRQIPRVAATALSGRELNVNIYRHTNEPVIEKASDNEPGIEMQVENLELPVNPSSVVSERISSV
Description: Radioligand binding to the 5-HT2C receptor ([3H]-5-HT, CHO cell line). The procedure: (§1) 1. Binding to Serotonin Receptors
(§2) The binding of compounds of formula (I) to serotonin receptors was determined in vitro by standard methods. The preparations were investigated in accordance with the assays given hereinafter.
Method (a): For the binding to the 5-HT2C receptor the 5-HT2C receptors were radiolabelled with [^3H]-5-HT. The affinity of the compounds for 5-HT2C receptors in a CHO cell line was determined according to the procedure of D. Hoyer, G. Engel and H.O. Kalkman, European J. Pharmacol., 1985, 118, 13-23.

In the next series the target is T2, 5-HT2A receptor (Homo sapiens, UniProt P28223).
T2 construct: expressed in transfected cells; host or cells: CHO cell line
T2 sequence (P28223 whole entry): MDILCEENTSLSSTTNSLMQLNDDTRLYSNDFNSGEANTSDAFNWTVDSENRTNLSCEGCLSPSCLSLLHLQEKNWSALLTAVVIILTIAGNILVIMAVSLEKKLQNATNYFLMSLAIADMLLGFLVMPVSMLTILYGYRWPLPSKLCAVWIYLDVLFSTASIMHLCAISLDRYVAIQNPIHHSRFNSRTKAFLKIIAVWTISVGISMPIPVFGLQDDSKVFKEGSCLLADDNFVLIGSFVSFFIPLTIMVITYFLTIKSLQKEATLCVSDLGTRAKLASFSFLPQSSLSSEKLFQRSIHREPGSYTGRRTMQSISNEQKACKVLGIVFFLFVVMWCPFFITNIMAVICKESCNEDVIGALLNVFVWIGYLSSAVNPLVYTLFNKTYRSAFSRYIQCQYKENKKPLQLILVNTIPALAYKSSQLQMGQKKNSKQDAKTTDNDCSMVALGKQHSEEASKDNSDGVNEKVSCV
Briefly: Radioligand binding to the 5-HT2A receptor ([125I]-DOI, CHO cell line). How it is done: as §1, §2
Method (c): For the binding to the 5-HT2A receptor the 5-HT2A receptors were radiolabelled with [^125I]-DOI. The affinity of the compounds for 5-HT2A receptors in a CHO cell line was determined according to the procedure of D. J. McKenna and S. J. Peroutka, J. Neurosci., 1989, 9/10, 3482-90.

A further series deals with T3, human 5-HT2B receptors (Homo sapiens, UniProt P41595).
T3 construct: expressed in transfected cells; host or cells: CHO cell line
T3 sequence (P41595 whole entry): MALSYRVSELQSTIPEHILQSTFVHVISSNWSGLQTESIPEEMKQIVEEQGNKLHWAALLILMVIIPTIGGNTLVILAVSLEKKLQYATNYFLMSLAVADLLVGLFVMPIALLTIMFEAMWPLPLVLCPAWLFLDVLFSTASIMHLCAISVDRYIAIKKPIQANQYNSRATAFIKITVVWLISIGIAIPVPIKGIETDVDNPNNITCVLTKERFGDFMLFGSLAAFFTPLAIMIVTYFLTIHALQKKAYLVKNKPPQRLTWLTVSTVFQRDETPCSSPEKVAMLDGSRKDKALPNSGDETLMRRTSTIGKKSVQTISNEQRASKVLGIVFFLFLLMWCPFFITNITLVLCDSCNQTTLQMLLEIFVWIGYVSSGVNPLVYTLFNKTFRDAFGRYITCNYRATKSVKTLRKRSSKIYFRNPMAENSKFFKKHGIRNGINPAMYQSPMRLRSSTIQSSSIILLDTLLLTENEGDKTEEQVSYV
Briefly: Radioligand binding to the 5-HT2B receptor ([3H]-5-HT, CHO cell line). The procedure:
as §1, §2
Method (b): For the binding to the 5-HT2B receptor the 5-HT2B receptors were radiolabelled with [^3H]-5-HT. The affinity of the compounds for human 5-HT2B receptors in a CHO cell line was determined according to the procedure of K. Schmuck, C. Ullmer, P. Engels and H. Lubbert, FEBS Lett., 1994, 342, 85-90.

Another series addresses T4, h5-HT2A receptors (Homo sapiens, UniProt P28223).
T4 construct: expressed in transfected cells; host or cells: CHO cells
Description: Functional activity, FLIPR calcium assay in CHO cells expressing h5-HT2A. Format: cell-based. How it is done: (§3) The functional activity of compounds of formula (I) was assayed using a Fluorimetric Imaging Plate reader (FLIPR) in the following manner.
(§4) CHO cells expressing either the h5-HT2C or h5-HT2A receptors were counted and plated into standard 96 well microtitre plates before the day of testing to give a confluent monolayer. The following day the cells were dye loaded with the calcium sensitive dye Fluo 3-AM by incubation with serum free culture maintenance media containing pluronic acid and Fluo 3-AM dissolved in DMSO at 37° C. in a CO2 incubator at 95% humidity for approximately 90 minutes. Unincorporated dye was removed by washing with Hanks balanced salt solution containing 20 mM HEPES and 2.5 mM probenecid (the assay buffer) using an automated cell washer to leave a total volume of 100 μL/well.
(§5) The drug (dissolved in 50 μL of assay buffer) was added at a rate of 70 μL/sec to each well of the FLIPR 96 well plate during fluorescence measurements. The measurements are taken at 1 sec intervals and the maximum fluorescent signal was measured (approx 10-15 secs after drug addition) and compared with the response produced by 10 μM 5-HT (defined as 100%) to which it is expressed as a percentage response (relative efficacy). Dose response curves were constructed using Graphpad Prism (Graph Software Inc.).

For a further series, the target named is T5, h5-HT2C (Homo sapiens, UniProt P28335).
T5 construct: expressed in transfected cells; host or cells: CHO cells
T5 sequence (P28335 33-458): T1 sequence (P28335 33-458)
Briefly: Functional activity, FLIPR calcium assay in CHO cells expressing h5-HT2C. The class given is cell-based. The procedure: as §3, §4, §5

The conditions of series [1]: cited from earlier work.
The conditions of series [2]: cited from earlier work. This is another data set of the same source.

T4 sequence (P28223 whole entry): as the sequence (P28223 whole entry) above

Turning to `COc1cc2c(cc1F)c1c(n2C[C@H](C)N)CCC1` [Example 37, (S)-1-(7-fluoro-6-methoxy-1,2,3,4-tetrahydrocyclopent[b]indol-4-yl)-2-propylamine], the Ki – broadly, a dissociation constant, usually derived from enzyme kinetics or from competition with a known ligand – was 41 nM on 5-HT2C receptor, 86 nM on 5-HT2A receptor and 65 nM on human 5-HT2B receptors. Further, the Emax was 28% on h5-HT2A receptors (CHO, maximum fluorescent signal compared with 10 μM 5-HT (defined as 100%), read-out: h5-HT2A Relative Efficacy) and 84% on h5-HT2C (CHO, maximum fluorescent signal compared with 10 μM 5-HT (defined as 100%), read-out: h5-HT2C Relative Efficacy). Besides, the EC50 (usually the midpoint of the concentration-response curve) on h5-HT2A receptors (FLIPR, CHO cells) was 2990 nM; on h5-HT2C (FLIPR, CHO cells) it was 127 nM.
Regarding `C[C@@H](N)Cn1c2c(c3cccc(Cl)c31)CCC2` [Example 43], the melting point (in general, the temperature of the solid-liquid transition) lay within 299 to 302 °C. The same compound had an inhibitory constant (Ki) at 5-HT2C receptor of 62 nM. Besides, at 5-HT2A receptor ([125I]-DOI, CHO cell line, read-out: Ki(2A)), the Ki was determined as 167 nM. On human 5-HT2B receptors ([3H]-5-HT, human receptor, CHO cell line, read-out: Ki(2B)), the Ki was found to be 162 nM.
With `FC(F)(F)c1cccc(N2CCNCC2)c1` [TFWPP, trifluoromethylphenylpiperazine], the “food intake in rats” value in series [1] is listed as “reduce food intake”.
With `Clc1cccc(N2CCNCC2)c1` [mCPP, m-chlorophenylpiperazine], the “food intake in rats” value in series [1] was “reduce food intake”. Further, the “appetite and body weight of obese subjects” value in series [2] (obese male and female subjects, subchronic treatment for 14 days) was “decreased the appetite and body weight”. In addition, the “food intake in female volunteers” value in series [2] (single injection, female volunteers) is reported as “decreased food intake”.
